Data on 4 molecules can be found in ChEMBL document CHEMBL2073792, “Hepatic uptake of the magnetic resonance imaging contrast agent gadoxetate by the organic anion transporting polypeptide Oatp1” (J Pharmacol Exp Ther, 1999).

What all share (type): functional, cell-based
Holding throughout (details): oocyte

Data set [1] concerns the target T1, Solute carrier organic anion transporter family member 1A1 (Rattus norvegicus, UniProt P46720).
T1 sequence (P46720 whole entry): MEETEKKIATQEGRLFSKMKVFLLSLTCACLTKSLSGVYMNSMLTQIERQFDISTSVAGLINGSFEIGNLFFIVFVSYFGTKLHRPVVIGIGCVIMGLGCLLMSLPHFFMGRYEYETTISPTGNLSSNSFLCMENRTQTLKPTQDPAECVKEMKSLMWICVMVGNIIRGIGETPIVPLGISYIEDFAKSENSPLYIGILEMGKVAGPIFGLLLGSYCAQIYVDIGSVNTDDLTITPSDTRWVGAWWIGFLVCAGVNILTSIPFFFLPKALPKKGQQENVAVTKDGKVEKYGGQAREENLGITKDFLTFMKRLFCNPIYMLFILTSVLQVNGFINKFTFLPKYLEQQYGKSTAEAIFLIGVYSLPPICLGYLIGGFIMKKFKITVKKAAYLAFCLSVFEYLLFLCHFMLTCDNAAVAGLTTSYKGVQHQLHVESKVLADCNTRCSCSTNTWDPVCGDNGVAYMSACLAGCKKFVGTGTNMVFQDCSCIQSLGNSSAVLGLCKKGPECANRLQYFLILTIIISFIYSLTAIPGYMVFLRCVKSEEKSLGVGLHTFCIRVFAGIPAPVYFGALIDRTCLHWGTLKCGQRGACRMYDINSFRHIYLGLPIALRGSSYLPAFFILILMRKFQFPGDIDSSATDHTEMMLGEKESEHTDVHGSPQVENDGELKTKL
In words: TP_TRANSPORTER: inhibition of Gadoxetate uptake (Gadoxetate: 100 uM, BSP: 10 uM) in Xenopus laevis oocytes.

Data set [2] deals with T1, Solute carrier organic anion transporter family member 1A1. Briefly: TP_TRANSPORTER: uptake in Xenopus laevis oocytes.
Data set [3] has the same target. Briefly: TP_TRANSPORTER: inhibition of Gadoxetate uptake (Gadoxetate: 100 uM, Rifamycin SV: 100 uM) in Xenopus laevis oocytes.
For data set [4] the target is unchanged. In words: TP_TRANSPORTER: inhibition of Gadoxetate uptake (Gadoxetate: 100 uM, Rifampicin: 100 uM) in Xenopus laevis oocytes.

As to `O=C1OC(c2ccc(O)c(S(=O)(=O)[O-])c2)(c2ccc(O)c(S(=O)(=O)[O-])c2)c2c(Br)c(Br)c(Br)c(Br)c21.[Na+].[Na+]` [SULFOBROMOPHTHALEIN SODIUM], the Activity entry in data set [1] was “inhibitor [(at a rough estimate) 55 % of control]”.
The term Km denotes the concentration of substrate that gives half-maximal velocity. GADOXETATE: the Km in data set [2] was 3.3 mM.
With `CO[C@H]1/C=C/O[C@@]2(C)Oc3c(C)c(O)c4c(O)c(cc(O)c4c3C2=O)NC(=O)/C(C)=C\C=C\[C@H](C)[C@H](O)[C@@H](C)[C@@H](O)[C@@H](C)[C@H](OC(C)=O)[C@@H]1C` [RIFAMYCIN], the Activity entry in data set [3] is “inhibitor [(at a rough estimate) <5 % of control]”.
`CO[C@H]1/C=C/O[C@@]2(C)Oc3c(C)c(O)c4c(O)c(c(/C=N/N5CCN(C)CC5)c(O)c4c3C2=O)NC(=O)/C(C)=C\C=C\[C@H](C)[C@H](O)[C@@H](C)[C@@H](O)[C@@H](C)[C@H](OC(C)=O)[C@@H]1C` [RIFAMPIN]: the Activity entry in data set [4] is “inhibitor [(at a rough estimate) 50 % of control]”.
